pIC50, pKi: −log10 of the molar value.
What was measured:
CRTH2 = CRTH2 (Homo sapiens (Human), UniProt Q9Y5Y4); test: CRTH2 receptor binding inhibitory activity ([3H]-PGD2 displacement, membranes of CRTH2-expressing K562 cell); conditions: CRTH2 receptor binding, [3H]-PGD2 displacement, membrane of CRTH2-expressing K562 cell; categorized AAAA/AAA; read-out: Ki
Outline: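 CRTH2-expressing K562 membranes (20 μg/well) in 50 mM Tris/HCl pH 7.4 with 10 mM MgCl2 were incubated with [3H]-PGD2 for 60 min at room temperature, then filtered.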

Human DP1 receptor = Human DP1 receptor (Homo sapiens (Human), UniProt Q13258); test: Human DP1 inhibitory activity in DP1-expressing cell (PGD2-induced cAMP); format: cell-based; conditions: category of cAMP IC50, human DP1 receptor expressing Jurkut cell
Sequence of Human DP1 receptor (Q13258 whole entry): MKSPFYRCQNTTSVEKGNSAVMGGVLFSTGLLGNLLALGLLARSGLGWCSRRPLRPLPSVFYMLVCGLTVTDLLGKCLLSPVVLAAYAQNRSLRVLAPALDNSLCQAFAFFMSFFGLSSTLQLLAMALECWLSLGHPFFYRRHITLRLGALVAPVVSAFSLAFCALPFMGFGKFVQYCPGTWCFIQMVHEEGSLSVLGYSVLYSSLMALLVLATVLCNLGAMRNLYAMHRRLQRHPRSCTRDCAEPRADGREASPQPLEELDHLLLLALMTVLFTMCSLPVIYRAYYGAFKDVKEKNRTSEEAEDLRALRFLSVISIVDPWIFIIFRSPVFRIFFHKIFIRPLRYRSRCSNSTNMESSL
Experimental: Compounds were categorized as AA (cAMP is less than 100 nM) and A (cAMP is more than 100 nM and less than 5000 nM) as shown in Table 99 and 100.

Sequence of CRTH2 (Q9Y5Y4 whole entry): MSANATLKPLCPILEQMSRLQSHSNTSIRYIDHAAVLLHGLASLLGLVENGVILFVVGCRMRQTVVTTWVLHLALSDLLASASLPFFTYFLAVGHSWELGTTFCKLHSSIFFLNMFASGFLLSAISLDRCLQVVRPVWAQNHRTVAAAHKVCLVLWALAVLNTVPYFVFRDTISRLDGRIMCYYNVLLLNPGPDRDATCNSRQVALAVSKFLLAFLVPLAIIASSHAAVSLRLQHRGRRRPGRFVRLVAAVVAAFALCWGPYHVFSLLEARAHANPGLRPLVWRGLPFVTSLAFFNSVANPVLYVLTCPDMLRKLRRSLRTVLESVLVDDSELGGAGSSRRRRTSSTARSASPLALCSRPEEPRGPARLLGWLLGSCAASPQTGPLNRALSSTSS

Question: `CCOc1ccc(S(=O)(=O)N2C[C@@H](C)[C@@H](n3nc(CC(=O)O)c4ccccc43)C2)c(CCc2ccccc2)c1` [Compound I-186] was tested. Which pKi (CRTH2) did it give?
Answer: The pKi was > 7.00.

Question: What about the pIC50 (Human DP1 receptor) of the same compound?
Answer: Its pIC50 is 5.30 to 7.00.

Question: With `CC(C)Oc1ccc(S(=O)(=O)N2C[C@H](n3nc(CC(=O)O)c4ccccc43)[C@](C)(F)C2)cc1` [Compound I-88] as the compound, how does the pKi (CRTH2) read?
Answer: The pKi was > 7.00.

Question: And the pIC50 (Human DP1 receptor)?
Answer: The pIC50 was > 7.00.

Question: `CCOc1ccc(S(=O)(=O)N2C[C@@H](C)[C@@H](n3nc(CC(=O)O)c4ccc(F)cc43)C2)s1` [Compound I-169] was tested. Which pKi (CRTH2) did it give?
Answer: The pKi was > 7.00.

Question: What about the pIC50 (Human DP1 receptor) of the same compound?
Answer: Its pIC50 is > 7.00.

Question: `CCOc1ccc(S(=O)(=O)N2C[C@@H](C)[C@@H](n3nc(CC(=O)NO)c4ccccc43)C2)cc1` [Compound I-311] was tested. Which pKi (CRTH2) did it give?
Answer: The pKi was 5.30 to 7.00.

Question: What about the pIC50 (Human DP1 receptor) of the same compound?
Answer: The pIC50 was 5.30 to 7.00.

Question: `CC#CCOC[C@H]1C[C@@H](n2nc(CC(=O)O)c3ccc(F)cc32)CN1S(=O)(=O)c1ccc(OC(C)C)cc1` [Compound I-326] was tested. Which pKi (CRTH2) did it give?
Answer: The pKi was 5.30 to 7.00.

Question: What about the pIC50 (Human DP1 receptor) of the same compound?
Answer: The pIC50 was 5.30 to 7.00.

Question: With `CCOc1ccc(S(=O)(=O)N2C[C@@H](C)[C@@H](n3nc(CC(=O)O)c4ccc(Cl)cc43)C2)cn1` [Compound I-143] as the compound, how does the pKi (CRTH2) read?
Answer: Its pKi is > 7.00.

Question: And the pIC50 (Human DP1 receptor)?
Answer: Its pIC50 is > 7.00.

Question: What does the source list for `CC[C@H]1C[C@@H](n2nc(CC(=O)O)c3ccc(F)cc32)CN1S(=O)(=O)c1ccc(OC(C)C)cc1` [Compound I-103]?
Answer: pKi (CRTH2): > 7.00; pIC50 (Human DP1 receptor): > 7.00

Question: What does the source list for `C=C[C@H]1C[C@@H](n2nc(CC(=O)O)c3ccc(F)cc32)CN1S(=O)(=O)c1ccc(OC(C)C)cc1` [Compound I-102]?
Answer: pKi (CRTH2): > 7.00; pIC50 (Human DP1 receptor): > 7.00

Question: What does the source list for `COc1ccc2c(c1)c(CC(=O)O)nn2[C@H]1CN(S(=O)(=O)c2ccc(OC(C)C)cc2)C[C@H]1C` [Compound I-267]?
Answer: pKi (CRTH2): 5.30 to 7.00; pIC50 (Human DP1 receptor): > 7.00

Question: `CC(C)Oc1ccc(S(=O)(=O)N2C[C@@H](CCO)[C@@H](n3nc(CC(=O)O)c4ccc(F)cc43)C2)cc1` [Compound I-40] was tested. Which pKi (CRTH2) did it give?
Answer: Its pKi is > 7.00.

Question: And the pIC50 (Human DP1 receptor)?
Answer: The pIC50 was 5.30 to 7.00.

Question: `C[C@@H]1CN(S(=O)(=O)c2ccc(OCF)cc2)C[C@@H]1n1nc(CC(=O)O)c2ccc(F)cc21` [Compound I-269] was tested. Which pKi (CRTH2) did it give?
Answer: The pKi was > 7.00.

Question: And the pIC50 (Human DP1 receptor)?
Answer: The pIC50 was > 7.00.

Question: With `CC(C)OCCOc1ccc(S(=O)(=O)N2C[C@@H](C)[C@@H](n3nc(CC(=O)O)c4ccccc43)C2)cc1` [Compound I-190] as the compound, how does the pKi (CRTH2) read?
Answer: Its pKi is > 7.00.

Question: And the pIC50 (Human DP1 receptor)?
Answer: Its pIC50 is 5.30 to 7.00.

Question: How did the pKi (CRTH2) turn out when `CCOc1ccc(S(=O)(=O)N2C[C@@H](C)[C@@H](n3nc(CC(=O)O)c4ccc(C#N)cc43)C2)cc1` [Compound I-172] was run?
Answer: The pKi was > 7.00.

Question: What about the pIC50 (Human DP1 receptor) of the same compound?
Answer: The pIC50 was > 7.00.

Question: `Cc1ccc2c(CC(=O)O)nn([C@H]3CN(S(=O)(=O)c4ccc(OC(C)C)cc4)C[C@@H]3C)c2c1` [Compound I-114] was tested. Which pKi (CRTH2) did it give?
Answer: The pKi was > 7.00.

Question: And the pIC50 (Human DP1 receptor)?
Answer: Its pIC50 is > 7.00.

Question: `COc1ccc(S(=O)(=O)N2C[C@@H](C)[C@@H](n3nc(CC(=O)O)c4ccccc43)C2)cn1` [Compound I-240] was tested. Which pKi (CRTH2) did it give?
Answer: The pKi was > 7.00.

Question: And the pIC50 (Human DP1 receptor)?
Answer: The pIC50 was 5.30 to 7.00.

Question: With `CCOc1ccc(S(=O)(=O)N2C[C@@H](C)[C@@H](n3nc(CC(=O)O)c4cc(C)ccc43)C2)cn1` [Compound I-265] as the compound, how does the pKi (CRTH2) read?
Answer: Its pKi is > 7.00.

Question: And the pIC50 (Human DP1 receptor)?
Answer: The pIC50 was > 7.00.

Question: What does the source list for `CCOc1ccc(S(=O)(=O)N2C[C@@H](n3nc(CC(=O)O)c4ccc(F)cc43)[C@@H](C)[C@@H]2C#N)cc1` [Compound I-155]?
Answer: pKi (CRTH2): 5.30 to 7.00; pIC50 (Human DP1 receptor): 5.30 to 7.00

Question: With `CC(C)Oc1ccc(S(=O)(=O)N2C[C@@H](n3nc(CC(=O)O)c4ccc(F)cc43)C[C@H]2C)cc1` [Compound I-8] as the compound, how does the pKi (CRTH2) read?
Answer: The pKi was > 7.00.

Question: What about the pIC50 (Human DP1 receptor) of the same compound?
Answer: The pIC50 was 5.30 to 7.00.

Question: With `Cc1ccc2c(CC(=O)O)nn([C@H]3CN(S(=O)(=O)C4CC4C(C)C)C[C@H]3C)c2c1` (stereo partly shown) [Compound I-249] as the compound, how does the pKi (CRTH2) read?
Answer: The pKi was > 7.00.

Question: What about the pIC50 (Human DP1 receptor) of the same compound?
Answer: The pIC50 was 5.30 to 7.00.

Question: What does the source list for `CC(C)Oc1ccc(S(=O)(=O)N2C[C@@H](C)[C@@H](n3nc(CC(=O)O)c4cc(C#N)ccc43)C2)cc1` [Compound I-262]?
Answer: pKi (CRTH2): 5.30 to 7.00; pIC50 (Human DP1 receptor): > 7.00

Question: Which results are given for `CC(C)Oc1ccc(S(=O)(=O)N2CC[C@H](n3nc(CC(=O)O)c4ccc(F)cc43)C[C@@H]2C)cc1` [Compound I-76]?
Answer: pKi (CRTH2): 5.30 to 7.00; pIC50 (Human DP1 receptor): > 7.00

Question: With `CCOc1ccc(S(=O)(=O)N2C[C@H](n3nc(CC(=O)O)c4ccccc43)C[C@@H]2CF)cn1` [Compound I-275] as the compound, how does the pKi (CRTH2) read?
Answer: The pKi was 5.30 to 7.00.

Question: And the pIC50 (Human DP1 receptor)?
Answer: The pIC50 was 5.30 to 7.00.

Question: `CCOc1ccc(S(=O)(=O)N2C[C@@H](C)[C@@H](n3nc(CC(=O)O)c4c(C)cccc43)C2)cn1` [Compound I-206] was tested. Which pKi (CRTH2) did it give?
Answer: The pKi was 5.30 to 7.00.

Question: What about the pIC50 (Human DP1 receptor) of the same compound?
Answer: Its pIC50 is > 7.00.

Question: `CC(C)Oc1ccc(S(=O)(=O)N2C[C@H](n3nc(CC(=O)O)c4ccc(F)cc43)C[C@@H]2COc2cccc(F)c2)cc1` [Compound I-303] was tested. Which pKi (CRTH2) did it give?
Answer: Its pKi is 5.30 to 7.00.

Question: And the pIC50 (Human DP1 receptor)?
Answer: Its pIC50 is > 7.00.

Question: With `CC(C)Oc1ccc(S(=O)(=O)N2C[C@@H](C3CC3)[C@@H](n3nc(CC(=O)O)c4ccc(F)cc43)C2)cc1` [Compound I-41] as the compound, how does the pKi (CRTH2) read?
Answer: Its pKi is > 7.00.

Question: And the pIC50 (Human DP1 receptor)?
Answer: The pIC50 was 5.30 to 7.00.

Question: `CC(C)Oc1ccc(S(=O)(=O)N2C[C@@H](CF)[C@@H](n3nc(CC(=O)O)c4ccc(F)cc43)C2)cc1` [Compound I-42] was tested. Which pKi (CRTH2) did it give?
Answer: The pKi was > 7.00.

Question: What about the pIC50 (Human DP1 receptor) of the same compound?
Answer: The pIC50 was 5.30 to 7.00.
